Experiments:
rat microglia = settings: cited from earlier work
[1] = test system: mouse pancreatic β cell line (MIN6); test: Insulin production from pancreatic β cells (MIN6) by TGR5 activation; format: cell-based; settings: 40 μg/mL, 25 mM glucose, compared with PLGA particles
Experimental: Concentration of insulin was measured using an Ultrasensitive Insulin ELISA kit (ALPCO). […] The pAkt production from CHO cells incubated with fresh or denatured insulin was compared to calculate percent bioactivity.
Concentration of insulin was measured using an Ultrasensitive Insulin ELISA kit (ALPCO).

[2] = test system: fibroblasts from patients with either sporadic or familial Alzheimer's disease; settings: cited from earlier work
[3] = Loading of dye/agents in NPs; format: physicochemical
Experimental: Polymer Synthesis and Nanoparticle (NP) formulation. […] Chloroform was utilized as the mobile phase with a flow rate of 1 mL/min and both the columns and RI detector were maintained at 40° C. MW characteristics were determined relative to a calibration curve generated from narrow polydispersity polystyrene standards (Aldrich Chemical). […] Polymers or the mixture (100 mg) was dissolved in 2 mL chloroform containing DIR (1 mg), coumarin 6 (10 mg), RAPA (10 mg) or iron oxide (1 mg). Phosphate-buffered saline (PBS, 100 μL) or the PBS containing INS (10 μg) was added dropwise to the chloroform polymer solution while vortexing and homogenized using an IKA T25 Digital Ultra-Turrax (IKA). This dispersant phase was then added dropwise to a continuous phase of 5% PVA and homogenized. The mixture was then added dropwise to 200 mL of 0.2% PVA and left stirring for 2 h to evaporate the solvent. NPs were collected by centrifugation at 12,000 rpm for 20 min at 4° C. and then washed 3 times with deionized water. The particles were lyophilized and stored at −20° C. The hydrodynamic diameter and surface charge of NPs were measured by a Malvern Zetasizer. A dispersion of NPs was filtrated through a 0.45 μm Millipore filter into cuvettes prior to the measurements. […] The morphology of the NPs was observed by Hitachi S-4800 High Resolution scanning electron microscopy (SEM, Norcross). A dispersion of NPs in ethanol (2 μL) was placed on the wafer substrate and dried at room temperature. The sample was mounted on the aluminum sample holder and then gold sputtered. […] NPs were dispersed in the media (citrate buffer solution, pH 2.0) at 37° C. in the presence of pepsin (10 mg/mL). At each time point, NPs were centrifuged, and supernatant was collected to measure the amount of DIR released from the particles using a plate reader (λex 750 nm, λem 790 nm, SpectraMax M5, Molecular Devices). Insulin release was quantified by the BCA assay.

[4] = cited from earlier work
[5] = Biodistribution and clearance of dye-loaded NPs after oral gavage; format: in vivo, mice; settings: pancreas
Experimental: B6, NOD, or Nude mice were fasted for 4 h and treated with DIR- or coumarin 6-encapsulating NPs by oral gavage (50, 100, or 500 mg/kg, 250 μL). Free DIR or coumarin 6 (solubilized with 1% Tween 20) served as controls. […] Fluorescence data was fit to the one component exponential decay model: Y=Yf+(Yo−e^−kt).
Biodistribution in animals was conducted using fluorescent dye loaded pBA NPs. Animals were first fasted for 4 h prior to the experiment then orally gavaged with the NP formulations in saline followed by resumption of normal food and water. At 4 h post gavage, animals were euthanized, and organs were harvested to be fluorescently imaged. Quantitative fluorescence was conducted with a multispectral imaging platform (Bruker multispectral MS FX PRO imaging system).

CC(CCC(=O)O)C1CC[C@H]2[C@@H]3[C@@H](O)C[C@@H]4C[C@H](O)CC[C@]4(C)[C@H]3CC[C@]12C (stereo partly shown) [UDCA, urso-deoxycholic acid]
effect on IL-1β, nitric oxide, TNF-α (rat microglia): reduce IL-1β and nitric oxide, and downregulate TNF-α
insulin secretion from pancreatic β cells [1]: able to induce insulin secretion
effect on mitochondrial function and Drp1 [2]: improve mitochondrial function and redistributes Drp1

insulin
Loading of agent [3]: 0.02 μg per mg of particles
loading of INS in pUDCA NPs [3]: approximately 20 ng/mg of NP

CCN(CC)c1ccc2cc(-c3nc4ccccc4s3)c(=O)oc2c1 [coumarin 6]
Log P [4]: 1.8
Loading of agent [3]: 84.3 μg per mg of particles

CCCCCCCCCCCCCCCCCCN1C(=CC=CC=CC=CC2=[N+](CCCCCCCCCCCCCCCCCC)c3ccccc3C2(C)C)C(C)(C)c2ccccc21.[I-] [DIR, 1,1′-dioctadecyl-3,3,3′,3′-tetramethylindotricarbocyanine iodide]
ΔY (Final-Initial) [5]: 1.42 % Initial Dose/cm^3
k (clearance rate) ([5]; one phase decay fit): ~0.01 h⁻¹
Loading of agent [3]: 6.7 μg per mg of particles
